Results as given in US8921314B2, “Conjugates of GLP-1 agonists and uses thereof” (Angiochem, Inc., priority 2008, dated 2014).
“Also recorded” adds a separate entry of the source.

What was measured:
mouse brain = conditions: in vivo
Description: To measure brain uptake of the exendin-4/Angiopep-2 conjugates, we used an in situ perfusion assay. […] The uptake of labeled exendin-4 and the exendin-4/Angiopep-2 conjugates was measured using the in situ brain perfusion method adapted in our laboratory for the study of drug uptake in the mouse brain (Dagenais et al., J Cereb Blood Flow Metab. 20:381-6, 2000; Cisternino et al., Pharm Res 18, 183-190, 2001). Briefly, the right common carotid artery of mice anesthetized with ketamine/xylazine (140/8 mg/kg i.p.) was exposed and ligated at the level of the bifurcation of the common carotid, rostral to the occipital artery. The common carotid was then catheterized rostrally with polyethylene tubing filled with heparin (25 U/ml) and mounted on a 26-gauge needle. The syringe containing the perfusion fluid ([^125I]-proteins or [^125I]-peptides in Krebs/bicarbonate buffer at pH 7.4, gassed with 95% O2 and 5% CO2) was placed in an infusion pump (Harvard pump PHD 2000; Harvard Apparatus) and connected to the catheter. Prior to the perfusion, the contralateral blood flow contribution was eliminated by severing the heart ventricles. The brain was perfused for 5 min at a flow rate of 1.15 ml/min. After perfusion of radiolabeled molecules, the brain was further perfused for 60 s with Krebs buffer, to wash away excess [^125I]-proteins. […]

DIO mice = assay: reduction of glycemia in DIO mice after bolus injection; assay type: in vivo, mouse; conditions: vs control
Description: We also tested the ability of the exendin-4-Angiopep-2 dimer conjugate to reduce glycemia in DIO mice. Mice were injected with a bolus containing a control, exendin-4, or the exendin-4-Angiopep-2 dimer conjugate.

ob/ob mice = assay: treatment of obese (ob/ob) mice with exendin-4/Angiopep-2 conjugate; assay type: in vivo, mouse; conditions: Q1D, higher doses (exendin-4 30 μg/kg, Exen-An2 48 μg/kg), vs control
Description: Obese mice (ob/ob mice) were administered the [Lys^39-MHA]exendin-4/Angiopep-2-Cys-NH2 conjugate (Exen-An2).
A 1.6 μg/kg dose of Exen-An2 is equivalent to a 1 μg/kg dose of exendin-4. The body weight of each mouse was measured daily. Food intake was estimated based on the mean values for each group, and glycemia was measured one hour following treatment.

## [Lys^39-MHA]exendin-4/Angiopep-2-Cys-NH2 [Exen-An2]
Mouse brain
  brain distribution: 10 ml/100 g/2 min

## exendin-4 [reference compound]
Mouse brain
  brain distribution: 0.2 ml/100 g/2 min
DIO mice
  glycemia: reduced glycemia
ob/ob mice; after 10 days, FIG. 5
  body weight gain: lower than the control; also recorded: reduce weight gain
ob/ob mice; FIG. 6
  food intake: reduced; also recorded: reduce food intake
